Results from patent US7906507B2, “Oxadiazoanthracene compounds for the treatment of diabetes” (TransTech Pharma, Inc., priority 2008, dated 2011).
pEC50: −log10 of the molar value.

Molecular target: T1, cloned human GLP-1 receptor (Homo sapiens, UniProt P43220)
T1 construct: expressed in transfected cells; host or cells: CHO or HEK-293 cells
Assay: Functional cell-based assay: cAMP functional assay
Details: for Emax: 0.5 h, percentage relative to maximal GLP-1-induced cAMP accumulation, na = not active in the assay, read-out: % activation
Method: Following overnight incubation of cells, media was removed, and compounds (at concentrations ranging from 0.0001 to 100 μM) were added to monolayer cells in Iscove's modified dulbecco's medium (IMDM), 100 μM RO 20-1724 PDE inhibitor, 0.1% BSA, 2% DMSO in a final volume of 100 μL, and incubated for 30 min at 37° C. 95% O2, 5% CO2 in a humidified incubator. cAMP was quantitated using a homogenous time-resolved fluorescence detection system (cAMP dynamic, CIS bio International).

T1 sequence (P43220 24-463): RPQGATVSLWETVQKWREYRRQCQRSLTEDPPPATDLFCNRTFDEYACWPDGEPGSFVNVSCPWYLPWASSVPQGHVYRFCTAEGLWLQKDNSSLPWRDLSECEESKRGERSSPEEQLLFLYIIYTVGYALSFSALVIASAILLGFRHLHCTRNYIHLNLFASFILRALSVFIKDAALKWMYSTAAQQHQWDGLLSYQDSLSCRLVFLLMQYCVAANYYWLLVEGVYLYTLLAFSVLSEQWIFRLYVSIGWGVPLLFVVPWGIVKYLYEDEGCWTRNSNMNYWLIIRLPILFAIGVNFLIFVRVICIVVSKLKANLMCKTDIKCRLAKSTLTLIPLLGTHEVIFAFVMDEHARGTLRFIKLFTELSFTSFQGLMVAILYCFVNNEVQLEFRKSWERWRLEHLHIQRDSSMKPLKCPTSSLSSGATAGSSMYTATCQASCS

N#Cc1ccc(-c2ccc(C[C@H](NC(=O)[C@@H]3Cc4cc5c(cc4CN3C(=O)C3CCC3)OC(c3ccc(OCc4ccc(Cl)c(Cl)c4)cc3)C(=O)N5)C(=O)O)cc2)cc1 (stereo partly drawn) [Example 12, (S)-3-(4′-Cyano-biphenyl-4-yl)-2-({(S)-6-cyclobutanecarbonyl-3-[4-(3,4-dichloro-benzyloxy)-phenyl]-2-oxo-2,3,5,6,7,8-hexahydro-1H-4-oxa-1,6-diaza-anthracene-7-carbonyl}-amino)-propionic acid]
pEC50: 6.37
Emax: 61%

N#Cc1ccc(-c2ccc(C[C@H](NC(=O)[C@@H]3Cc4cc5c(cc4CN3S(=O)(=O)c3ccccc3[N+](=O)[O-])OC(c3ccc(OCc4ccc(Cl)c(Cl)c4)cc3)C(=O)N5)C(=O)O)cc2)cc1 (stereo partly drawn) [Example 51, (S)-3-(4′-Cyano-biphenyl-4-yl)-2-{[(S)-3-[4-(3,4-dichloro-benzyloxy)-phenyl]-6-(2-nitro-benzenesulfonyl)-2-oxo-2,3,5,6,7,8-hexahydro-1H-4-oxa-1,6-diaza-anthracene-7-carbonyl]-amino}-propionic acid]
pEC50: 6.09
Emax: 30%

CC[C@@H](c1ccccc1)N1Cc2cc3c(cc2C[C@H]1C(=O)N[C@@H](Cc1ccc(-c2ccc(OC)cc2)cc1)C(=O)O)N(C)C(=O)[C@H](c1ccc(OCc2ccc(Cl)c(Cl)c2)cc1)O3 [Example 94, (S)-2-{[(3S,7S)-3-[4-(3,4-Dichloro-benzyloxy)-phenyl]-1-methyl-2-oxo-6-((S)-1-phenyl-propyl)-2,3,5,6,7,8-hexahydro-1H-4-oxa-1,6-diaza-anthracene-7-carbonyl]-amino}-3-(4′-methoxy-biphenyl-4-yl)-propionic acid]
pEC50: 6.37
Emax: 41%

N#Cc1ccc(-c2ccc(C[C@H](NC(=O)[C@@H]3Cc4cc5c(cc4CN3Cc3ccccc3F)OC(c3ccc(OCc4ccc(Cl)c(Cl)c4)cc3)C(=O)N5)C(=O)O)cc2)cc1 (stereo partly drawn) [Example 41, (S)-3-(4′-Cyano-biphenyl-4-yl)-2-{[(S)-3-[4-(3,4-dichloro-benzyloxy)-phenyl]-6-(2-fluoro-benzyl)-2-oxo-2,3,5,6,7,8-hexahydro-1H-4-oxa-1,6-diaza-anthracene-7-carbonyl]-amino}-propionic acid]
pEC50: 6.37
Emax: 42%

N#Cc1ccc(-c2ccc(C[C@H](NC(=O)[C@@H]3Cc4cc5c(cc4CN3Cc3cccc(Br)n3)OC(c3ccc(OCc4ccc(Cl)c(Cl)c4)cc3)C(=O)N5)C(=O)O)cc2)cc1 (stereo partly drawn) [Example 45, (S)-2-({(S)-6-(6-Bromo-pyridin-2-ylmethyl)-3-[4-(3,4-dichloro-benzyloxy)-phenyl]-2-oxo-2,3,5,6,7,8-hexahydro-1H-4-oxa-1,6-diaza-anthracene-7-carbonyl}-amino)-3-(4′-cyano-biphenyl-4-yl)-propionic acid]
pEC50: 6.00
Emax: 18%

Cc1cccc(CN2Cc3cc4c(cc3C[C@H]2C(=O)N[C@@H](Cc2ccc(-c3ccc(C#N)cc3)cc2)C(=O)O)NC(=O)C(c2ccc(OCc3ccc(Cl)c(Cl)c3)cc2)O4)n1 (stereo partly drawn) [Example 44, (S)-3-(4′-Cyano-biphenyl-4-yl)-2-{[(S)-3-[4-(3,4-dichloro-benzyloxy)-phenyl]-6-(6-methyl-pyridin-2-ylmethyl)-2-oxo-2,3,5,6,7,8-hexahydro-1H-4-oxa-1,6-diaza-anthracene-7-carbonyl]-amino}-propionic acid]
pEC50: 6.00
Emax: 25%

O=C1Nc2cc3c(cc2OC1c1ccc(OCc2ccc(Cl)c(Cl)c2)cc1)CN(C(=O)c1ccccc1)[C@H](C(=O)N[C@@H](Cc1ccc(-c2ccncc2)cc1)C(=O)O)C3 (stereo partly drawn) [Example 83, (S)-2-({(S)-6-Benzoyl-3-[4-(3,4-dichloro-benzyloxy)-phenyl]-2-oxo-2,3,5,6,7,8-hexahydro-1H-4-oxa-1,6-diaza-anthracene-7-carbonyl}-amino)-3-(4-pyridin-4-yl-phenyl)-propionic acid]
pEC50: 6.15
Emax: 18%
